Measured values from US8426406B2, “Glucocorticoid receptor agonist comprising 2,2,4-trimethyl-6-phenyl-1,2-dihydroquinoline derivatives having substituted oxy group” (Santen Pharmaceutical Co., Ltd., priority 2008, dated 2013).

Experiments:
[1] = test system: choroidal neovascularization (CNV) model in rats; experiment: Evaluation test for inhibitory effect of choroidal neovascularization (laser induced CNV model in rats); format: in vivo; details: Brown Norway rats, 1% (w/v) suspension eye drops four times a day or 20 mg/mL subconjunctival injection (route not given), vs vehicle, mean of 7-8 eyes in 4 rats
Procedure: The choroidal neovascularization (CNV) model in rats is known as one of the popular methods for evaluating the CNV inhibitory effect of drugs. This method is reported in Graefe's Arch. Cli. Exp. Ophthalmol., 235, 313-319 (1997). According to this method, the CNV examinations were performed to evaluate the CNV inhibitory effect of test compounds by comparing the incidence rates of CNV in vehicle group (control group) with test compound-treated groups.
For eye drop administration, a 1% (w/v) test compound suspension was prepared by adding 0.5% polysorbate 80/saline to the test compound. For subconjunctival injection, a 20 mg/mL test compound suspension was prepared by adding 0.5% hydrogenated castor oil/saline to the test compound.
1) Brown Norway male rats (7-8 weeks, 140-240 g) were anesthetized with intramuscular injection (1 mL/kg) of the mixed solution (5% ketamine HCl: 2% xylazine HCl=7:1).
2) After mydriasis using tropicamide phenylephrine hydrochloride eye drops (trade name Mydrin P), laser photocoagulation of bruch's membrane in rats was performed with krypton laser photocoagulation machine. Laser irradiation was performed at 8-9 points per eye avoiding thick retinal blood vessels in ocular fundus and focusing on the depth of retina. The conditions were 100 μm spot size, 100 mW power, 0.1 second duration.
3) After laser photocoagulation, photographs of ocular fundus were taken and the laser photocoagulation (laser irradiation) points were confirmed.
1) In case of eye drops administration, a test compound suspension was administrated four times a day from laser irradiation day (the 1st day) to the 8th day. In case of subconjunctival injection, a 50 μL test compound suspension was injected into conjunctivae just after laser irradiation.
2) In vehicle group (control group), 0.5% polysorbate 80/saline or 0.5% hydrogenated castor oil/saline was used instead of a test compound suspension. And the test was performed according to the method 1).
1) 7 days after laser irradiation, 0.1 mL of 10% fluorescein was injected into rat tail vein and fluorescein angiography was performed.
2) When the fluorescent leakage was not detected in the fluorescent angiography, the spot was judged to be a negative spot. When the fluorescent leakage was detected, the spot was judged to be a positive spot. When the fluorescent leakage was detected as a little leakage, two spots were counted as one positive spot.
3) The neovascular incidence rate was calculated according to the equation 1. According to the equation 2, the ratio of neovascular incidence rate in test compound group to vehicle group was calculated. Neovascular incidence rate(%)=(Positive spots/all spots)×100 (Equation 1) Angiogenic inhibition ratio in test compound group(%)=(1−Ax/Ao)×100 (Equation 2)
Ao: Neovascular incidence rate in vehicle group (control group)
Ax: Neovascular incidence rate in test compound group

[2] = test system: IL-6 production induced by lipopolysaccharide (LPS) in human corneal epithelial cells; experiment: Evaluation test for GR agonist activity: inhibition of LPS-induced IL-6 production in human corneal epithelial cells (HCE-T); format: cell-based; details: Corneal epithelial cell, 10 μL of 100 μM test compound solution per well, 4 hours incubation, efficacy relative to DEX
Outline: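 SV40-immortalized HCE-T cells were treated with test compound (100 μM solution, stock before dilution into well) plus LPS (1 μg/mL solution, likewise pre-dilution) for 4 hours in 10% FBS-DMEM/F12. IL-6 in supernatants was measured by HTRF. Inhibition was calculated relative to LPS-plus-DMSO and no-LPS controls, and efficacy was expressed as % of DEX inhibition.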

SMILES: COc1cc(OS(=O)(=O)C(C)C)ccc1-c1ccc2c(c1COc1cc(F)ccc1C)C(C)=CC(C)(C)N2 [Compound 4-5, 5-(5-Fluoro-2-methylphenoxymethyl)-6-(4-isopropylsulfonyloxy-2-methoxyphenyl)-2,2,4-trimethyl-1,2-dihydroquinoline]
- Angiogenic inhibition ratio (%) [1]: 38%
- Emax [2]: 90%

SMILES: COc1cc(OC(=O)N2CCOCC2)ccc1-c1ccc2c(c1COc1cc(F)ccc1C)C(C)=CC(C)(C)N2 [Compound 6-31, 5-(5-Fluoro-2-methylphenoxymethyl)-6-[2-methoxy-4-(morpholin-4-ylcarbonyloxy)phenyl]-2,2,4-trimethyl-1,2-dihydroquinoline]
- Angiogenic inhibition ratio (%) [1]: 45%
- Emax [2]: 86%

SMILES: COc1cc(OC(=O)N(C)C)ccc1-c1ccc2c(c1COc1cc(F)ccc1C)C(C)=CC(C)(C)N2 [Compound 6-3, 6-(4-Dimethylaminocarbonyloxy-2-methoxyphenyl)-5-(5-fluoro-2-methylphenoxymethyl)-2,2,4-trimethyl-1,2-dihydroquinoline]
- Angiogenic inhibition ratio (%) [1]: 38%
- Emax [2]: 83%

SMILES: COc1ccc(OC(=O)c2ccco2)cc1-c1ccc2c(c1COc1cc(F)ccc1C)C(C)=CC(C)(C)N2 [Compound 1-17, 5-(5-Fluoro-2-methylphenoxymethyl)-6-[5-(furan-2-ylcarbonyloxy)-2-methoxyphenyl]-2,2,4-trimethyl-1,2-dihydroquinoline]
- Angiogenic inhibition ratio (%) [1]: 35%
- Emax [2]: 84%

SMILES: COc1cc(OC(=O)c2cccnc2C)ccc1-c1ccc2c(c1COc1cc(F)ccc1C)C(C)=CC(C)(C)N2 [Compound 1-49, 5-(5-Fluoro-2-methylphenoxymethyl)-6-[2-methoxy-4-(2-methylpyridin-3-ylcarbonyloxy)phenyl]-2,2,4-trimethyl-1,2-dihydroquinoline]
- Angiogenic inhibition ratio (%) [1]: 23%
- Emax [2]: 96%

SMILES: COc1cc(OC(=O)C(C)C)ccc1-c1ccc2c(c1COc1cc(F)ccc1C)C(C)=CC(C)(C)N2 [Compound 1-14, 5-(5-Fluoro-2-methylphenoxymethyl)-6-(4-isobutyryloxy-2-methoxyphenyl)-2,2,4-trimethyl-1,2-dihydroquinoline]
- Angiogenic inhibition ratio (%) [1]: 46%
- Emax [2]: 79%

SMILES: CCCC(=O)Oc1ccc(-c2ccc3c(c2COc2cc(F)ccc2C)C(C)=CC(C)(C)N3)c(OC)c1 [Compound 1-9, 6-(4-Butyryloxy-2-methoxyphenyl)-5-(5-fluoro-2-methylphenoxymethyl)-2,2,4-trimethyl-1,2-dihydroquinoline]
- Angiogenic inhibition ratio (%) [1]: 31%
- Emax [2]: 79%

SMILES: COc1ccccc1NCc1c(-c2ccc(OC(=O)N3CCOCC3)cc2OC)ccc2c1C(C)=CC(C)(C)N2 [Compound 6-35, 6-[2-Methoxy-4-(morpholin-4-ylcarbonyloxy)phenyl]-5-(2-methoxyphenylaminomethyl)-2,2,4-trimethyl-1,2-dihydroquinoline]
- Angiogenic inhibition ratio (%) [1]: 26%
- Emax [2]: 87%

SMILES: COc1ccc(OC(=O)c2cccnc2)cc1-c1ccc2c(c1COc1cc(F)ccc1C)C(C)=CC(C)(C)N2 [Compound 1-19, 5-(5-Fluoro-2-methylphenoxymethyl)-6-[2-methoxy-5-(pyridin-3-ylcarbonyloxy)phenyl]-2,2,4-trimethyl-1,2-dihydroquinoline]
- Angiogenic inhibition ratio (%) [1]: 30%
- Emax [2]: 78%

SMILES: COc1ccc([N+](=O)[O-])cc1OCc1c(-c2ccc(OS(=O)(=O)C3CC3)cc2OC)ccc2c1C(C)=CC(C)(C)N2 [Compound 4-8, 6-(4-Cyclopropylsulfonyloxy-2-methoxyphenyl)-5-(2-methoxy-5-nitrophenoxymethyl)-2,2,4-trimethyl-1,2-dihydroquinoline]
- Angiogenic inhibition ratio (%) [1]: 26%
- Emax [2]: 78%

SMILES: COc1cc(OC(=O)c2ccsc2)ccc1-c1ccc2c(c1COC(=O)c1ccc(C)s1)C(C)=CC(C)(C)N2 [Compound 1-147, 6-[2-Methoxy-4-(thiophen-3-ylcarbonyloxy)phenyl]-5-(5-methylthiophen-2-ylcarbonyloxymethyl)-2,2,4-trimethyl-1,2-dihydroquinoline]
- Emax [2]: 80%

SMILES: COc1ccccc1NCc1c(-c2ccc(OC(=O)c3ccc(F)cc3)cc2OC)ccc2c1C(C)=CC(C)(C)N2 [Compound 1-110, 6-[4-(4-Fluorobenzoyloxy)-2-methoxyphenyl]-5-(2-methoxyphenylaminomethyl)-2,2,4-trimethyl-1,2-dihydroquinoline]
- Emax [2]: 83%

SMILES: COc1cc(OC(=O)N2CCOCC2)ccc1-c1ccc2c(c1COC(=O)c1ccc(C)s1)C(C)=CC(C)(C)N2 [Compound 6-26, 6-[2-Methoxy-4-(morpholin-4-ylcarbonyloxy)phenyl]-5-(5-methylthiophen-2-ylcarbonyloxymethyl)-2,2,4-trimethyl-1,2-dihydroquinoline]
- Emax [2]: 84%

SMILES: CCS(=O)(=O)Oc1ccc(-c2ccc3c(c2COc2cc([N+](=O)[O-])ccc2C)C(C)=CC(C)(C)N3)c(OC)c1 [Compound 4-11, 6-(4-Ethylsulfonyloxy-2-methoxyphenyl)-5-(2-methyl-5-nitrophenoxymethyl)-2,2,4-trimethyl-1,2-dihydroquinoline]
- Emax [2]: 75%

SMILES: COc1cc(OC(=O)c2cccnc2C)ccc1-c1ccc2c(c1COC(=O)c1ccc(C)s1)C(C)=CC(C)(C)N2 [Compound 1-153, 6-[2-Methoxy-4-(2-methylpyridin-3-ylcarbonyloxy)phenyl]-5-(5-methylthiophen-2-ylcarbonyloxymethyl)-2,2,4-trimethyl-1,2-dihydroquinoline]
- Emax [2]: 89%

SMILES: COc1cc(OC(=O)N(C)C)ccc1-c1ccc2c(c1COC(=O)c1ccc(C)s1)C(C)=CC(C)(C)N2 [Compound 6-37, 6-(4-Dimethylaminocarbonyloxy-2-methoxyphenyl)-5-(5-methylthiophen-2-ylcarbonyloxymethyl)-2,2,4-trimethyl-1,2-dihydroquinoline]
- Emax [2]: 85%

SMILES: COc1ccccc1NCc1c(-c2ccc(OC(=O)c3ccccc3F)cc2OC)ccc2c1C(C)=CC(C)(C)N2 [Compound 1-101, 6-[4-(2-Fluorobenzoyloxy)-2-methoxyphenyl]-5-(2-methoxyphenylaminomethyl)-2,2,4-trimethyl-1,2-dihydroquinoline]
- Emax [2]: 81%

SMILES: COc1ccccc1NCc1c(-c2ccc(OC(=O)c3ccccc3Cl)cc2OC)ccc2c1C(C)=CC(C)(C)N2 [Compound 1-99, 6-[4-(2-Chlorobenzoyloxy)-2-methoxyphenyl]-5-(2-methoxyphenylaminomethyl)-2,2,4-trimethyl-1,2-dihydroquinoline]
- Emax [2]: 89%

SMILES: COc1cc(OC(=O)C(C)C)ccc1-c1ccc2c(c1COC(=O)c1ccc(C)s1)C(C)=CC(C)(C)N2 [Compound 1-164, 6-(4-Isopropylcarbonyloxy-2-methoxyphenyl)-5-(5-methylthiophen-2-ylcarbonyloxymethyl)-2,2,4-trimethyl-1,2-dihydroquinoline]
- Emax [2]: 85%

SMILES: CCCS(=O)(=O)Oc1ccc(-c2ccc3c(c2COc2cc([N+](=O)[O-])ccc2C)C(C)=CC(C)(C)N3)c(OC)c1 [Compound 4-12, 6-(2-Methoxy-4-propylsulfonyloxyphenyl)-5-(2-methyl-5-nitrophenoxymethyl)-2,2,4-trimethyl-1,2-dihydroquinoline]
- Emax [2]: 77%

SMILES: COc1cc(OC(=O)c2cccnc2)ccc1-c1ccc2c(c1COc1cc(F)ccc1C)C(C)=CC(C)(C)N2 [Compound 1-8, 5-(5-Fluoro-2-methylphenoxymethyl)-6-[2-methoxy-4-(pyridin-3-ylcarbonyloxy)phenyl]-2,2,4-trimethyl-1,2-dihydroquinoline]
- Emax [2]: 94%
